{"source": "patent US20110028554A1", "about": "“PHARMACEUTICAL COMPOSITIONS COMPRISING DIIODOTHYRONINE AND THEIR THERAPEUTIC USE” (UNIVERSITE JOSEPH FOURIER, priority 2007, published 2011)", "key": {"[1]": {"assay": "Food intake of Wistar rats", "assay_type": "in vivo", "description": "(§1) Adult male rat bred in the animal room facilities of Laboratory of Fundamental and Applied. Bioenergetics (Wistar strain) or purchased from Charles-River Laboratories, Domaine des oncins, L'ARBRESLE France [(genetically obese normoglycemic (Zucker or Fa/Fa) or diabetic (ZDF)] were caged individually in stainless steel hanging cages and maintained in a 22° C., 50±10% relative humidity and 12 h:12 h light:dark environment. All animals were fed ad libitum with a standard rat chow (Safe A04, Villemoisson, France) and tap water. Body mass and food intake were recorded twice/thrice a week and fresh food was provided, at the same time to ensure minimal disturbance to the animals' food, behavior.\n(§2) Eight-week old rats (300 g±10 g) were anesthetized by simultaneous intraperitoneal injection of diazepam 4 mg/kg and ketamine 100 mg/kg. In order to maintain body temperature during the surgery (10 min), animals were placed on a warm blanket. After interscapular shaving, a small incision of 0.5 cm of the skin allows the subcutaneous implantation of a small pellet (containing rT3 or 3′,3-T2) with a 10-gauge precision trochar. The pellets, manufactured by Innovative Research of America (Sarasota, Fla., USA) are constituted of a biodegradable matrix that effectively and continuously release the active product in the animal.\n(§3) 3-5 diiodothyronine (3-5 T2) or 3-3′diiodothyronine (3-3′ T2) were used at different doses (5, 0.5, or 0.1 mg/pellet) were implanted in order to provide a continuous and constant drug delivery over 60 days (which represents 25 μg, 2.5 μg or 0.5 μg/day/100 g BW)."}, "[2]": {"assay": "Body composition (adipose tissues, skeletal muscles, brown adipose tissue) of Wistar rats", "assay_type": "in vivo", "text": "(§4) At the end of the experimental period, animals were sacrificed by decapitation, in order to avoid the well-known effects of general anesthetics on mitochondrial metabolism. Blood, samples were immediately collected and plasma was frozen for subsequent determination of serum metabolites and hormones. Liver, muscles and fat depots were quickly excised and weighed. Liver median lobe was rapidly freeze-clamped. Muscles (plantaris, soleus and gastrocnemius) were frozen in isopentane precooled in liquid nitrogen. Mesenteric fat consisted, of adipose tissue surrounding the gastro-intestinal tract from the gastro-oesophageal sphincter to the end of the rectum with special care taken in distinguishing and removing the pancreas. Retroperitoneal fat pad was taken as the distinct depot behind each kidney along the lumbar muscles. Epididymal fat consisted, of adipose tissue on top of the epididymis. For subcutaneous depot measurement, a rectangular piece of skin was taken on the right side of each animal from the median line of the abdomen between the spine and the right hip to the first rib. Interscapular brown adipose tissue was removed and dissected free from adjacent muscles and white adipose tissue. The heart ventricles, the right kidney and the spleen were also excised, weighed and frozen."}, "[3]": {"assay": "Body weight, adipose and lean tissue weight and core temperature in ZDF rats", "assay_type": "in vivo, Zucker Diabetic fatty (ZDF) rats", "conditions": "high dose 25 μg/100 g BW", "description": "as §1, §2, §3"}, "liver mitochondria": {"system": "liver mitochondria", "assay": "Liver mitochondrial oxygen consumption (JO2) of treated Wistar rats", "assay_type": "in vivo", "conditions": "for Liver mitochondrial respiratory rate, phosphorylating condition (state 3), vs placebo: all substrates", "description": "(§5) All measurements were performed using mitochondria (1.0 mg mitochondrial protein/ml) incubated with various substrates: • GM: glutamate/malate (5 mM/2.5 mM) • SR: succinate/rotenone (5 mM/5 μM), • GMS: glutamate/malate/succinate (5 mM/2.5 mM/5 mM), • Palm: palmitoyl carnitine (55 μM), • Octa: octanoyl carnitine (100 μM), • TMPD/AsC: TMPD/ascorbate (0.5 mM/0.5 mM), and • TMPD/AsC/DNP: TMPD/ascorbate/DNP (0.5 mM/0.5 mM/75 μM).\nJO2 was recorded in the presence of the substrate and following the addition of 1 mM ADP (adenosine diphosphate) (state 3).\nThe oligomycin was added to the mitochondrial suspension to determine the non-phosphorylating respiratory-rate (state 4).\n(§6) The major part of the liver and the red part of each quadriceps were rinsed, and chopped into isolation medium (250 mM sucrose, 20 mM Tris-HCl and 1 mM EGTA-Tris, pH 7.4). Nuclei and cell debris were removed, by centrifugation at 800 g for 10 min. Mitochondria were then isolated from the supernatant by spinning twice at 8,000 g for 10 minutes. The mitochondrial pellet was resuspended in 0.5 ml of isolation buffer and kept on ice. Mitochondrial protein was measured by the bicinchoninic acid method (Pierce, Rockford, Ill.). The final mitochondrial suspensions were maintained on ice and were used for measurements of oxygen consumption rate and reactive oxygen species (ROS) production.\n(§7) The rate of mitochondrial oxygen consumption (JO2) was measured at 30° C. in an incubation chamber with a Clark-type O2 electrode filled with 2 ml of incubation medium (125 mM KCl, 10 mM Pi-Tris, 20 mM Tris-HCl, 0.1 mM EGTA, pH 7.2). All measurements were performed using mitochondria (1.0 or 0.2 mg mitochondrial protein/ml for liver and skeletal muscle) incubated either with various substrates: glutamate/malate (5 mM/2.5 mM) and succinate (5 mM), alone or in combination, palmitoyl carnitine (55 μM) and octanoyl carnitine (100 μM). For each substrate, JO2 was recorded in the presence of the substrate alone (State 2) and following the addition of 1 mM ADP (state 3). Oligomycin (1.25 μg/mg protein) was added to the mitochondrial suspension to determine the non-phosphorylating respiratory rate (state 4). The incubation medium was constantly stirred with a built-in electromagnetic stirrer and bar flea. The efficiency of the mitochondrial oxidative phosphorylation was assessed by the state 3/state 4 ratio which measures the degree of control imposed on oxidation by phosphorylation (respiratory control ratio, RCR)."}, "muscle mitochondria": {"system": "muscle mitochondria", "assay": "Muscle mitochondrial oxygen consumption (JO2) of treated Wistar rats", "assay_type": "in vivo", "description": "as §5, with “(0.2” for “(1.0”\nJO2 was recorded in the presence of the substrate and following the addition of 1 mM ADP (state 3).\nThe oligomycin was added to the mitochondrial suspension to determine the non-phosphorylating respiratory rate (state 4).\nas §6, §7"}, "[4]": {"assay": "Plasmatic concentrations of glucose, triglycerides, cholesterol, FFA and HDL on the day of sacrifice", "assay_type": "in vivo, Wistar, Zucker and ZDF rats", "text": "These measurements were done on venous blood of the rats the day of the sacrifice.\nas §4\nGlucose and 3-hydroxybutyrate (3-HB) were measured, enzymatically and non esterified fatty acid (NEFA) by colorimetric assay (Wako Chemicals).\nTriglycerides and cholesterol were measured by classical routine automate apparatus."}}, "data": [{"smiles": "N[C@@H](Cc1cc(I)c(Oc2ccc(O)cc2)c(I)c1)C(=O)O", "note": "[3,5-T2, 3,5-diiodothyronine]", "values": [{"measurement": "Food intake vs placebo", "setting": "[1]; high dosage 25 μg/100 g BW", "result": "a clear increase was observed"}, {"measurement": "Food intake vs placebo", "setting": "[1]; low dosage 2.5 μg/100 g BW", "result": "almost not affect"}, {"measurement": "Brown adipose tissue weight vs placebo", "setting": "[2]; high dosage 25 μg/100 g BW", "result": "significantly increased"}, {"measurement": "Fat masses, all localizations (retroperitoneal, epididymal, mesenteric, subcutaneous) vs placebo", "setting": "[2]; high dosage 25 μg/100 g BW", "result": "significantly lower"}, {"measurement": "Muscle mass / lean body mass vs placebo", "setting": "[2]; high dosage 25 μg/100 g BW", "result": "not affected at all"}, {"measurement": "Fat mass vs placebo", "setting": "[2]; low dosage 2.5 μg/100 g BW", "result": "significantly decreased"}, {"measurement": "Lean body mass vs placebo", "setting": "[2]; low dosage 2.5 μg/100 g BW", "result": "not affected"}, {"measurement": "Fat mass gain vs placebo", "setting": "[3]; 4 weeks", "result": "less"}, {"measurement": "Lean body mass increase vs placebo", "setting": "[3]; 4 weeks", "result": "higher"}, {"measurement": "Core temperature vs placebo", "setting": "[3]; 15 days", "result": "higher as compared to placebo"}, {"measurement": "Liver mitochondrial respiratory rate, non-phosphorylating (state 4, oligomycin), vs placebo", "setting": "liver mitochondria; high dosage 25 μg/100 g BW", "result": "substantially higher in the low 3,5-T2 group only"}, {"measurement": "Liver mitochondrial respiratory rate, phosphorylating condition (state 3), vs placebo", "setting": "liver mitochondria; high dosage 25 μg/100 g BW", "result": "very significant increased respiratory rate"}, {"measurement": "Liver mitochondrial respiratory rate, non-phosphorylating (state 4, oligomycin), vs placebo", "setting": "liver mitochondria; low dosage 2.5 μg/100 g BW", "result": "substantially higher"}, {"measurement": "Liver mitochondrial respiratory rate, phosphorylating condition (state 3), vs placebo", "setting": "liver mitochondria; low dosage 2.5 μg/100 g BW", "result": "very significant increased respiratory rate"}, {"measurement": "Muscle mitochondrial respiration, non-phosphorylating (state 4), vs placebo", "setting": "muscle mitochondria; high dosage 25 μg/100 g BW", "result": "failed to substantially affect"}, {"measurement": "Muscle mitochondrial respiration, phosphorylating (state 3), vs placebo", "setting": "muscle mitochondria; high dosage 25 μg/100 g BW", "result": "failed to substantially affect"}, {"measurement": "Muscle mitochondrial respiration, non-phosphorylating (state 4), vs placebo", "setting": "muscle mitochondria; low dosage 2.5 μg/100 g BW", "result": "failed to substantially affect"}, {"measurement": "Muscle mitochondrial respiration, phosphorylating (state 3), vs placebo", "setting": "muscle mitochondria; low dosage 2.5 μg/100 g BW", "result": "failed to substantially affect"}, {"measurement": "Plasmatic glucose at the end of the treatment", "setting": "[4]; non-diabetic Wistar rats, low dosage 2.5 μg/100 g BW", "result": "minor changes"}, {"measurement": "Plasmatic glucose at the end of the treatment", "setting": "[4]; non-diabetic Zucker rats, 25 μg/100 g BW", "result": "minor changes"}]}]}
